In patent US20100041089A1, “IMPROVED METHOD FOR DETECTING CHEMICAL […]” (priority 2006, published 2010):

Tested on: yeast genes (expressed mRNA)
Assay: DNA chip measurement of expressed mRNA of yeast genes after culture with a toxic chemical substance
Assay type: cell-based, Saccharomyces cerevisiae S288C
Details: for level of expressed mRNA in the presence of chemical substance / level in the absence of chemical substance: cultured two hours with the chemical substance; for The level of expressed mRNA in the presence of chemical substance/The level of expressed mRNA in the absence of chemical substance: cultured two hours with substance
Description: Yeast (Saccharomyces cerevisiae S288C (a SUC2mal mel gap2 CUP1)) were cultured at 25° C. on YPD medium (yeast extract 1%, polypeptone 2%, glucose 2%). One of toxic chemical substances was added to the cell at logarithmic growth phase, and the cell was further cultured for two hours. Cell was cultured without any chemical substance in the same condition, and was used as a control. Concentrations of the chemical substances were defined to inhibit the growth of the yeast but not lead to death.
After the completion of cultivation, the culture was centrifuged to collect the cells. To the cells, sodium acetate buffer (50 mM sodium acetate, 10 mM EDTA, 1% SDS) was added, and the mixture was shaken at 65° C. for five minutes, followed by returning to room temperature, and obtaining the supernatant, which procedure was repeated two times. To the supernatant, ½ amount of a solution of phenol/chloroform (1:1) was added, and the mixture was centrifuged to give a supernatant, an equal amount of chloroform was added, and the mixture was centrifuged to give a supernatant. To the supernatant, an equal amount of isopropanol containing 0.3 M sodium acetate was added, and the mixture was allowed to stand at room temperature for 30 minutes, after which the mixture was centrifuged to give sediment of the whole RNAs. Seventy % ethanol was added to the sediment, and the mixture was again centrifuged to give sediment, which was then dried and dissolved in water. mRNA was isolated from the whole RNAs as followings. In view of the fact that a poly A chain is attached to the 3′ terminus of mRNA, a polynucleotide having a poly T structure which was immobilized on the surface of latex beads was used to trap the mRNA, and then the mRNA was washed and eluted with spine column (Oligotex-dT30<Super>mRNA Purification Kit, Takara). Reverse transcription of the mRNA was conducted with a reverse transcriptase (Super Script II Reverse Transcriptase; catalogue No. 18064-014, GibcoBRL) using fluorescence-labeled nucleotides to give cDNAs that were introduced with Cy3-dUTP or Cy5-dUTP during the reverse transcription.
The labeled cDNAs were dissolved in TE buffer (10 mM Tris-HCl/1 mM EDTA, pH 8.0), and the solution was dropped on the DNA chip containing the whole genes of yeast (DNA Chip Research Inc. Japan) so that the cDNAs were hybridized on the DNA chip at 65° C. for over 12 hours. The fluoresces intensity of the DNA chip was read with a scanner, and the ratio relative to the fluorescence intensity resulting from the absence of chemical substance was estimated as the following, which is shown in Tables 1 to 9.
In the Tables, “Intensity” indicated in the rightmost column is a value of the level of expressed mRNA of each gene in control cells as divided by the average level of the expressions of the whole genes. A gene of which mRNA level is lower in control, and is higher in cases of addition of chemical substance, is especially useful in the detection of toxic substances.
Here, when a ratio of an amount of mRNA expressed in the presence of the chemical substance to an amount of mRNA expressed in the absence of the chemical substance is two or more, then it is considered significant.

Structure (SMILES): [Cl][Hg][Cl] [(3), HgCl2]
- level of expressed mRNA in the presence of chemical substance / level in the absence of chemical substance (yeast gene YNL058C): 2.1
- level of expressed mRNA in the presence of chemical substance / level in the absence of chemical substance (yeast gene YNL063W): 0.9
- The level of expressed mRNA in the presence of chemical substance/The level of expressed mRNA in the absence of chemical substance (yeast gene YNL074C): 1.8
- The level of expressed mRNA in the presence of chemical substance/The level of expressed mRNA in the absence of chemical substance (yeast gene YNL092W): 2.4
- The level of expressed mRNA in the presence of chemical substance/The level of expressed mRNA in the absence of chemical substance (yeast gene YNL115C): 1.6
- The level of expressed mRNA in the presence of chemical substance/The level of expressed mRNA in the absence of chemical substance (yeast gene YNL156C): 0.9
- level of expressed mRNA in the presence of chemical substance / level in the absence of chemical substance (yeast gene YNL176C): 2.9
- level of expressed mRNA in the presence of chemical substance / level in the absence of chemical substance (yeast gene YNL194C): 2.0
- level of expressed mRNA in the presence of chemical substance / level in the absence of chemical substance (yeast gene YNL200C): 3.6
- The level of expressed mRNA in the presence of chemical substance/The level of expressed mRNA in the absence of chemical substance (yeast gene YNL234W): 0.6
- level of expressed mRNA in the presence of chemical substance / level in the absence of chemical substance (yeast gene YNL253W): 0.6
- level of expressed mRNA in the presence of chemical substance / level in the absence of chemical substance (yeast gene YNL276C): 1.9
- The level of expressed mRNA in the presence of chemical substance/The level of expressed mRNA in the absence of chemical substance (yeast gene YNL281W): 2.0
- The level of expressed mRNA in the presence of chemical substance/The level of expressed mRNA in the absence of chemical substance (yeast gene YNL305C): 2.7
- level of expressed mRNA in the presence of chemical substance / level in the absence of chemical substance (yeast gene YNR051C): 1.1
- The level of expressed mRNA in the presence of chemical substance/The level of expressed mRNA in the absence of chemical substance (yeast gene YNR068C): 2.3
- level of expressed mRNA in the presence of chemical substance / level in the absence of chemical substance (yeast gene YOL026C): 0.7
- The level of expressed mRNA in the presence of chemical substance/The level of expressed mRNA in the absence of chemical substance (yeast gene YOL032W): 2.0
- The level of expressed mRNA in the presence of chemical substance/The level of expressed mRNA in the absence of chemical substance (yeast gene YOL036W): 1.3
- The level of expressed mRNA in the presence of chemical substance/The level of expressed mRNA in the absence of chemical substance (yeast gene YOL047C): 1.1
- The level of expressed mRNA in the presence of chemical substance/The level of expressed mRNA in the absence of chemical substance (yeast gene YOL071W): 1.7
- The level of expressed mRNA in the presence of chemical substance/The level of expressed mRNA in the absence of chemical substance (yeast gene YOL082W): 1.6
- The level of expressed mRNA in the presence of chemical substance/The level of expressed mRNA in the absence of chemical substance (yeast gene YOL083W): 1.2
- The level of expressed mRNA in the presence of chemical substance/The level of expressed mRNA in the absence of chemical substance (yeast gene YOL117W): 0.5
- The level of expressed mRNA in the presence of chemical substance/The level of expressed mRNA in the absence of chemical substance (yeast gene YOL131W): 0.6
- The level of expressed mRNA in the presence of chemical substance/The level of expressed mRNA in the absence of chemical substance (yeast gene YOL150C): 9.9
- The level of expressed mRNA in the presence of chemical substance/The level of expressed mRNA in the absence of chemical substance (yeast gene YOL162W): 1.7
- The level of expressed mRNA in the presence of chemical substance/The level of expressed mRNA in the absence of chemical substance (yeast gene YOR019W): 0.8
- level of expressed mRNA in the presence of chemical substance / level in the absence of chemical substance (yeast gene YOR022C): 1.1
- level of expressed mRNA in the presence of chemical substance / level in the absence of chemical substance (yeast gene YOR087W): 1.8
- level of expressed mRNA in the presence of chemical substance / level in the absence of chemical substance (yeast gene YOR138C): 0.7
- The level of expressed mRNA in the presence of chemical substance/The level of expressed mRNA in the absence of chemical substance (yeast gene YOR197W): 1.1
- level of expressed mRNA in the presence of chemical substance / level in the absence of chemical substance (yeast gene YOR253W): 1.0
- level of expressed mRNA in the presence of chemical substance / level in the absence of chemical substance (yeast gene YOR267C): 1.0
- level of expressed mRNA in the presence of chemical substance / level in the absence of chemical substance (yeast gene YOR325W): 1.5
- level of expressed mRNA in the presence of chemical substance / level in the absence of chemical substance (yeast gene YPL005W): 1.0
- The level of expressed mRNA in the presence of chemical substance/The level of expressed mRNA in the absence of chemical substance (yeast gene YPL087W): 3.0
- level of expressed mRNA in the presence of chemical substance / level in the absence of chemical substance (yeast gene YPL150W): 1.6
- level of expressed mRNA in the presence of chemical substance / level in the absence of chemical substance (yeast gene YPL152W): 1.4
- level of expressed mRNA in the presence of chemical substance / level in the absence of chemical substance (yeast gene YPL168W): 0.5
- level of expressed mRNA in the presence of chemical substance / level in the absence of chemical substance (yeast gene YPL180W): 0.7
- level of expressed mRNA in the presence of chemical substance / level in the absence of chemical substance (yeast gene YPL188W): 2.9
- The level of expressed mRNA in the presence of chemical substance/The level of expressed mRNA in the absence of chemical substance (yeast gene YPL196W): 1.3
- The level of expressed mRNA in the presence of chemical substance/The level of expressed mRNA in the absence of chemical substance (yeast gene YPL206C): 1.4
- level of expressed mRNA in the presence of chemical substance / level in the absence of chemical substance (yeast gene YPL221W): 1.0
- The level of expressed mRNA in the presence of chemical substance/The level of expressed mRNA in the absence of chemical substance (yeast gene YPL222W): 0.8
- level of expressed mRNA in the presence of chemical substance / level in the absence of chemical substance (yeast gene YPL225W): 1.0
- The level of expressed mRNA in the presence of chemical substance/The level of expressed mRNA in the absence of chemical substance (yeast gene YPR023C): 1.2
- level of expressed mRNA in the presence of chemical substance / level in the absence of chemical substance (yeast gene YPR049C): 1.5
- level of expressed mRNA in the presence of chemical substance / level in the absence of chemical substance (yeast gene YPR146C): 1.3
- level of expressed mRNA in the presence of chemical substance / level in the absence of chemical substance (yeast gene YPR148C): 0.8
- The level of expressed mRNA in the presence of chemical substance/The level of expressed mRNA in the absence of chemical substance (yeast gene YPR151C): 1.5
- level of expressed mRNA in the presence of chemical substance / level in the absence of chemical substance (yeast gene YPR172W): 2.2
